Assay results taken from patent US4127446A, “Process for producing antibiotics mimosamycin and chlorocarcins A, B and C” (priority 1975, dated 1978).
In brackets after ≈: the same amount, converted by molar mass.

Legend:
[1] = test system: Mycobacterium bovis No. 10; assay: microbe, parasite or virus in culture; type: cell-based; conditions: Mycobacterium tuberculosis variant bovis, NO.10, 672 h
[2] = test system: gram-positive bacteria; assay: Biological properties of mimosamycin: activity against gram-positive bacteria; type: cell-based
[3] = test system: gram-negative bacteria; assay: Biological properties of mimosamycin: activity against gram-negative bacteria; type: cell-based; conditions: at a concentration of 50 μg/ml
[4] = test system: fungi; assay: Biological properties of mimosamycin: activity against fungi; type: cell-based; conditions: at a concentration of 50 μg/ml
[5] = test system: acid-fast bacteria; assay: Biological properties of mimosamycin: activity against acid-fast bacteria; type: cell-based
[6] = test system: highly streptomycin-resistant strains of human tubercle bacilli; type: cell-based; conditions: compared with normal strains of tubercle bacilli
[7] = Solubility; type: physicochemical
[8] = test system: tubercle bacilli; assay: Activity of mimosamycin against tubercle bacilli (in words); type: cell-based
[9] = test system: Mycobacterium smegmatis ATCC607; assay: Antimicrobial activity of mimosamycin (Table 4); conditions: Mycolicibacterium smegmatis, ATCC607, 48 h

Q: For `COC1=C(C)C(=O)c2cc(=O)n(C)cc2C1=O` [Mimosamycin], which MIC [1] is on record?
A: 6.25 µg/mL (≈ 26.8 µM)

Q: What about the “activity against gram-positive bacteria” value [2] of the same molecule?
A: active against gram-positive bacteria to a certain extent

Q: What about the “activity against gram-negative bacteria” value [3] of the same molecule?
A: non-effective

Q: And the activity against fungi [4]?
A: non-effective

Q: And the “activity against acid-fast bacteria” value [5]?
A: active against acid-fast bacteria

Q: And the “activity against highly streptomycin-resistant strains of human tubercle bacilli” value [6]?
A: effective against highly streptomycin-resistant strains of human tubercle bacilli as is against normal strains of tubercle bacilli

Q: What about the Solubility ([7]; in ethyl ether, n-hexane) of the same molecule?
A: Sparingly soluble

Q: And the Solubility ([7]; in methanol, ethanol, chloroform, esters, acetone)?
A: Easily soluble

Q: What about the Solubility ([7]; in water) of the same molecule?
A: Insoluble

Q: What about the “activity against tubercle bacilli” value [8] of the same molecule?
A: specifically effective against tubercle bacilli

Q: And the MIC [9]?
A: 25 µg/mL (≈ 107 µM)
